{"source": "ChEMBL document CHEMBL1212792", "about": "“Comparative pharmacokinetics of ceftaroline in rats, rabbits, and monkeys following a single intravenous or intramuscular injection” (Antimicrob Agents Chemother, 2010)", "key": {"[1]": {"test": "%T>MIC in Streptococcus pneumoniae-infected neutropenic mouse model", "format": "functional"}, "[2]": {"test": "%T>MIC human infected with Staphylococcus at 600 mg. im administered every 12 hrs", "conditions": "route intramuscular"}, "Staphylococcus [3]": {"tested_on": "Staphylococcus", "test": "Antibacterial activity against Staphylococcus infected in human", "format": "functional"}, "[4]": {"test": "%T>MIC in rabbit endocarditis model at 20 mg/kg, im administered as single dose measured after 12 hrs", "format": "functional", "conditions": "route intramuscular"}, "Streptococcus pneumoniae": {"tested_on": "Streptococcus pneumoniae", "test": "Antibacterial activity against Streptococcus pneumoniae", "format": "functional"}, "[5]": {"test": "%T>MIC in gram negative bacteria-infected neutropenic mouse model", "format": "functional"}, "Staphylococcus [6]": {"tested_on": "Staphylococcus", "test": "Antibacterial activity against Staphylococcus", "format": "functional"}, "[7]": {"test": "%T>MIC in rabbit endocarditis model at 20 mg/kg, im administered as single dose measured after 8 hrs", "format": "functional", "conditions": "route intramuscular"}, "[8]": {"test": "%T>MIC in Staphylococcus aureus-infected neutropenic mouse model", "format": "functional"}}, "data": [{"smiles": "CCO/N=C(\\C(=O)N[C@@H]1C(=O)N2C(C(=O)[O-])=C(Sc3nc(-c4cc[n+](C)cc4)cs3)CS[C@H]12)c1nsc(NP(=O)(O)O)n1", "note": "[CEFTAROLINE FOSAMIL]", "values": [{"measurement": "fT>MIC", "setting": "[1]", "value": 39, "unit": "%"}, {"measurement": "fT>MIC", "setting": "[2]", "value": 64.65, "unit": "%"}, {"measurement": "MIC", "setting": "Staphylococcus [3]", "value": 0.12, "unit": "mg/L"}, {"measurement": "fT>MIC", "setting": "[4]", "value": 30.9, "unit": "%"}, {"measurement": "MIC90", "setting": "Streptococcus pneumoniae", "value": "≤ 2", "unit": "mg/L"}, {"measurement": "fT>MIC", "setting": "[5]", "value": 32, "unit": "%"}, {"measurement": "MIC90", "setting": "Staphylococcus [6]", "value": "≤ 2", "unit": "mg/L"}, {"measurement": "fT>MIC", "setting": "[7]", "value": 46.3, "unit": "%"}, {"measurement": "fT>MIC", "setting": "[8]", "value": 26, "unit": "%"}]}]}
